Where two headings read alike, the source gives them in different places.
System: MDA-MB-231 (human breast cancer) cell line
Experiment: MTT cell viability assay in MDA-MB-231 cells
Assay type: cell-based
Conditions: 72 h; for viability at 20 µM: positive control at 20 µM
Procedure: Thus, we screened the synthesized library of pyrazolo[1,5-a]pyrimidin-7-ols 4a–4i. Anticancer activity (in terms of growth inhibition/decreased cell viability with respect to control) of all synthesized compounds (n = 9) was investigated by MTT assay in MDA-MB-231 (human breast cancer) cell line at different concentrations for 72 h. […] Thus, it was aimed to investigate the anticancer activity of a synthesized library of triazole-linked glycohybrids of pyrazolo[1,5-a]pyrimidines. […] The MTT assay was used to investigate the anticancer activity of twenty-seven synthesized compounds on the growth inhibition and decrement in cell viability of MDA-MB-231 (human breast cancer). Different concentrations were tested for 72 h, and the results were compared to a control. MDA-MB-231, a human breast cancer cell line, was cultured under standard conditions. Specifically, they were grown in Dulbecco’s Modified Eagle’s Medium (DMEM) supplemented with 10% heat-inactivated Fetal Bovine Serum (FBS) and 1% penicillin–streptomycin. The cells were maintained as a monolayer in a 100 mm culture plate and were used for experiments before reaching their 8th passage. Subculturing was performed every third-day using trypsin EDTA treatment. All incubation and maintenance procedures were carried out in a humidified CO2 incubator at 37 °C. To evaluate cell viability, the MTT assay was conducted following standard procedures. After 72 h of cell incubation with or without each compound, cell viability was assessed using MTT (3-(4,5-dimethylthiazol-2-yl)-2,5-diphenyltetrazolium bromide), which is a colorimetric method for determining the number of viable cells in various assays including proliferation, cytotoxicity, or chemosensitivity. The MTT reagent was added to the cells after removal of the medium and incubated for 3 h at 37 °C in the CO2 incubator. The formazan product, which is […] in the tissue culture medium, was dissolved in DMSO, and the absorbance of the formazan product was directly measured at 595 nm using a multimode plate reader without additional processing. The absorbance values are directly proportional to the number of viable cells in culture. The percentage of viable cells in each group was determined relative to the untreated control cells.

[1] = Table 2, MDA-MB-231, MTT, read-out: Cell viability (%) ± SD
[2] = Table 1, MDA-MB-231, MTT, read-out: Cell Viability (%) ± SD

SMILES	viability at 10 µM [1] [%]	viability at 25 µM [1] [%]	viability at 50 µM [1] [%]	viability at 10 µM [2] [%]	viability at 25 µM [2] [%]	viability at 50 µM [2] [%]	viability at 20 µM [2] [%]	viability at 20 µM [1] [%]
CC(=O)OC[C@H]1O[C@@H](n2cc(COc3cc(-c4ccc(Br)cc4)nc4ccnn34)nn2)[C@H](OC(C)=O)[C@@H](OC(C)=O)[C@@H]1OC(C)=O [Compound 9c, (2R,3R,4S,5R,6R)-2-(acetoxymethyl)-6-(4-(((5-(4-bromophenyl)pyrazolo[1,5-a]pyrimidin-7-yl)oxy)methyl)-1H-1,2,3-triazol-1-yl)tetrahydro-2H-pyran-3,4,5-triyl triacetate]	100 ± 8.01	100 ± 8.93	99.5 ± 2.89	–	–	–	–	–
COc1ccc(-c2cc(OCc3cn([C@@H]4O[C@H](COC(C)=O)[C@@H](OC(C)=O)[C@H](OC(C)=O)[C@H]4OC(C)=O)nn3)n3nccc3n2)cc1 [Compound 9b, (2R,3R,4S,5R,6R)-2-(acetoxymethyl)-6-(4-(((5-(4-methoxyphenyl)pyrazolo[1,5-a]pyrimidin-7-yl)oxy)methyl)-1H-1,2,3-triazol-1-yl)tetrahydro-2H-pyran-3,4,5-triyl triacetate]	95.4 ± 5.38	85.5 ± 6.74	83.4 ± 4.16	–	–	–	–	–
COc1ccc(-c2cc(O)n3nccc3n2)cc1 [Compound 4b]	–	–	–	85.1 ± 8.53	80.1 ± 3.51	70.5 ± 5.69	–	–
CC(=O)OC[C@H]1O[C@@H](n2cc(COc3cc(-c4ccc(C)cc4)nc4ccnn34)nn2)[C@H](OC(C)=O)[C@@H](OC(C)=O)[C@H]1OC(C)=O [Compound 10a, (2R,3S,4S,5R,6R)-2-(acetoxymethyl)-6-(4-(((5-(p-tolyl)pyrazolo[1,5-a]pyrimidin-7-yl)oxy)methyl)-1H-1,2,3-triazol-1-yl)tetrahydro-2H-pyran-3,4,5-triyl triacetate]	81.7 ± 8.36	78.5 ± 6.73	68.8 ± 10.4	–	–	–	–	–
CC(=O)OC[C@H]1O[C@H](n2cc(COc3cc(-c4ccc(F)cc4)nc4ccnn34)nn2)[C@@H](OC(C)=O)[C@@H](OC(C)=O)[C@@H]1OC(C)=O [Compound 11e, (2R,3R,4S,5S,6S)-2-(acetoxymethyl)-6-(4-(((5-(4-fluorophenyl)pyrazolo[1,5-a]pyrimidin-7-yl)oxy)methyl)-1H-1,2,3-triazol-1-yl)tetrahydro-2H-pyran-3,4,5-triyl triacetate]	98.4 ± 3.62	90.1 ± 6.77	88.6 ± 6.27	–	–	–	–	–
Oc1cc(-c2ccc3ccccc3c2)nc2ccnn12 [Compound 4h]	–	–	–	89.1 ± 4.09	86.5 ± 2.58	84.4 ± 7.36	–	–
Oc1cc(-c2ccc(Cl)cc2)nc2ccnn12 [Compound 4d]	–	–	–	98.6 ± 2.25	95.2 ± 1.96	87.2 ± 9.22	–	–
CC(=O)OC[C@H]1O[C@@H](n2cc(COc3cc(-c4ccc5ccccc5c4)nc4ccnn34)nn2)[C@H](OC(C)=O)[C@@H](OC(C)=O)[C@H]1OC(C)=O [Compound 10h, (2R,3S,4S,5R,6R)-2-(acetoxymethyl)-6-(4-(((5-(naphthalen-2-yl)pyrazolo[1,5-a]pyrimidin-7-yl)oxy)methyl)-1H-1,2,3-triazol-1-yl)tetrahydro-2H-pyran-3,4,5-triyl triacetate]	75 ± 8.31	89.6 ± 9.91	57.7 ± 10.8	–	–	–	–	–
CC(=O)OC[C@H]1O[C@H](n2cc(COc3cc(-c4ccc(Cl)cc4)nc4ccnn34)nn2)[C@@H](OC(C)=O)[C@@H](OC(C)=O)[C@@H]1OC(C)=O [Compound 11d, (2R,3R,4S,5S,6S)-2-(acetoxymethyl)-6-(4-(((5-(4-chlorophenyl)pyrazolo[1,5-a]pyrimidin-7-yl)oxy)methyl)-1H-1,2,3-triazol-1-yl)tetrahydro-2H-pyran-3,4,5-triyl triacetate]	95.8 ± 5.85	92.1 ± 6	89 ± 1.1	–	–	–	–	–
CC(=O)OC[C@H]1O[C@H](n2cc(COc3cc(-c4ccc(Br)cc4)nc4ccnn34)nn2)[C@@H](OC(C)=O)[C@@H](OC(C)=O)[C@@H]1OC(C)=O [Compound 11c, (2R,3R,4S,5S,6S)-2-(acetoxymethyl)-6-(4-(((5-(4-bromophenyl)pyrazolo[1,5-a]pyrimidin-7-yl)oxy)methyl)-1H-1,2,3-triazol-1-yl)tetrahydro-2H-pyran-3,4,5-triyl triacetate]	81.3 ± 7.65	76.5 ± 6.58	72.5 ± 8.45	–	–	–	–	–
CC1=CC(=O)c2ccccc2C1=O [Menadione, menadione, reference compound]	–	–	–	–	–	–	21.8 ± 4.7	20.8 ± 6.7
Oc1cc(-c2ccc3c(c2)OCO3)nc2ccnn12 [Compound 4i]	–	–	–	96.6 ± 3.36	89.1 ± 3.51	73.5 ± 6.69	–	–
CC(=O)OC[C@H]1O[C@H](n2cc(COc3cc(-c4ccc(C(F)(F)F)cc4)nc4ccnn34)nn2)[C@@H](OC(C)=O)[C@@H](OC(C)=O)[C@@H]1OC(C)=O [Compound 11f, (2R,3R,4S,5S,6S)-2-(acetoxymethyl)-6-(4-(((5-(4-(trifluoromethyl)phenyl)pyrazolo[1,5-a]pyrimidin-7-yl)oxy)methyl)-1H-1,2,3-triazol-1-yl)tetrahydro-2H-pyran-3,4,5-triyl triacetate]	79.6 ± 4.7	74.5 ± 4.44	86.5 ± 7.27	–	–	–	–	–
COc1ccc(-c2cc(OCc3cn([C@@H]4O[C@H](COC(C)=O)[C@H](OC(C)=O)[C@H](OC(C)=O)[C@H]4OC(C)=O)nn3)n3nccc3n2)cc1 [Compound 10b, (2R,3S,4S,5R,6R)-2-(acetoxymethyl)-6-(4-(((5-(4-methoxyphenyl)pyrazolo[1,5-a]pyrimidin-7-yl)oxy)methyl)-1H-1,2,3-triazol-1-yl)tetrahydro-2H-pyran-3,4,5-triyl triacetate]	92.5 ± 9.39	85.2 ± 8.63	70.5 ± 6.24	–	–	–	–	–
Cc1ccc(-c2cc(O)n3nccc3n2)cc1 [Compound 4a]	–	–	–	91.4 ± 4.38	85.5 ± 3.74	84.4 ± 2.16	–	–
CC(=O)OC[C@H]1O[C@@H](n2cc(COc3cc(-c4ccc5c(c4)OCO5)nc4ccnn34)nn2)[C@H](OC(C)=O)[C@@H](OC(C)=O)[C@H]1OC(C)=O [Compound 10i, (2R,3S,4S,5R,6R)-2-(acetoxymethyl)-6-(4-(((5-(benzo[d][1,3]dioxol-5-yl)pyrazolo[1,5-a]pyrimidin-7-yl)oxy)methyl)-1H-1,2,3-triazol-1-yl)tetrahydro-2H-pyran-3,4,5-triyl triacetate]	100 ± 9.67	99.25 ± 0.34	98.5 ± 1.88	–	–	–	–	–
Oc1cc(-c2ccc(F)cc2)nc2ccnn12 [Compound 4e]	–	–	–	86.6 ± 9.76	78.1 ± 3.51	69.5 ± 5.69	–	–
Oc1cc(-c2ccc(C(F)(F)F)cc2)nc2ccnn12 [Compound 4f]	–	–	–	92.2 ± 8.51	88.8 ± 8.75	72.8 ± 7.02	–	–
CC(=O)OC[C@H]1O[C@@H](n2cc(COc3cc(-c4ccc(Br)cc4)nc4ccnn34)nn2)[C@H](OC(C)=O)[C@@H](OC(C)=O)[C@H]1OC(C)=O [Compound 10c, (2R,3S,4S,5R,6R)-2-(acetoxymethyl)-6-(4-(((5-(4-bromophenyl)pyrazolo[1,5-a]pyrimidin-7-yl)oxy)methyl)-1H-1,2,3-triazol-1-yl)tetrahydro-2H-pyran-3,4,5-triyl triacetate]	79.5 ± 2.43	77.8 ± 2.43	74 ± 2.62	–	–	–	–	–
CC(=O)OC[C@H]1O[C@@H](n2cc(COc3cc(-c4ccc(C(C)C)cc4)nc4ccnn34)nn2)[C@H](OC(C)=O)[C@@H](OC(C)=O)[C@H]1OC(C)=O [Compound 10g, (2R,3S,4S,5R,6R)-2-(acetoxymethyl)-6-(4-(((5-(4-isopropylphenyl)pyrazolo[1,5-a]pyrimidin-7-yl)oxy)methyl)-1H-1,2,3-triazol-1-yl)tetrahydro-2H-pyran-3,4,5-triyl triacetate]	85.2 ± 3.5	79.5 ± 8.96	78.7 ± 2.56	–	–	–	–	–
CC(=O)OC[C@H]1O[C@@H](n2cc(COc3cc(-c4ccc(F)cc4)nc4ccnn34)nn2)[C@H](OC(C)=O)[C@@H](OC(C)=O)[C@@H]1OC(C)=O [Compound 9e, (2R,3R,4S,5R,6R)-2-(acetoxymethyl)-6-(4-(((5-(4-fluorophenyl)pyrazolo[1,5-a]pyrimidin-7-yl)oxy)methyl)-1H-1,2,3-triazol-1-yl)tetrahydro-2H-pyran-3,4,5-triyl triacetate]	98.6 ± 2.25	92.2 ± 1.96	81.2 ± 9.22	–	–	–	–	–

— article PMC10766964, “Copper-catalyzed synthesis of pyrazolo[1,5-a]pyrimidine based triazole-linked glycohybrids: mechanistic insights and bio-applications” (Scientific Reports, 2024)
